Test results taken from US20250288704A1, “CXCR4-LIGANDS FOR DIAGNOSTIC AND THERAPEUTIC USE AND PRECURSORS THEREOF” (priority 2021, published 2025).
Read-outs that look alike come from different tables or passages of the source. Non-standard residues stand in square brackets, D forms with d. Residues, ends and D or L forms follow the SMILES beside them. Groups on a side chain read outwards from the residue. *: point of attachment. DOTA = O=C(O)CN1CCN(CC(=O)O)CCN(CC(=O)*)CCN(CC(=O)O)CC1; dTyr(3-I) = N[C@H](Cc1ccc(O)c(I)c1)C(=O)O; 2Nal = N[C@@H](Cc1ccc2ccccc2c1)C(=O)O; dNMeOrn = CN[C@H](CCCN)C(=O)O; 4Amb = NCc1ccc(C(=O)O)cc1; 4Abz = Nc1ccc(C(=O)O)cc1; dDap = NC[C@@H](N)C(=O)O

Legend:
CXCR4 = CXCR4 (Homo sapiens, UniProt P61073); test: Determination of IC50: competition with 125I-Fc-131 on CXCR4-positive Jurkat cells; assay type: binding; design: CXCR4-positive Jurkat T lymphocyte cells were grown in Gibco's RPMI 1640 GlutaMAX medium; endogenous in cells; host or cells: Jurkat T lymphocyte cells (whole cells in suspension, 400.000 per tube);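 further: test compound at 10^−5 to 10^−11 M competed for 2 h at 8 °C with the radioligand on 400,000 cells per well, bound versus free activity measured by γ-counting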
[1] = tested on: CXCR4-expressing Chem_1 cells; test: Determination of internalization, dual tracer with 125I-Fc-131; assay type: cell-based; details: for Cell-bound [%] / Internalized [%]: of total cellular activity; for Internalization [% Fc-131] 2 h: 177Lu-labeled
Experimental: CXCR4-expressing Chem_1 cells were grown in DMEM-F12 medium supplemented with 10 vol % FBS, 1 vol % NEA, 1 vol % PenStrep and 1 vol % HEPES (1.00 M). Cells were maintained in a 5% CO2 atmosphere at 37° C.
For in vitro experiments, cells were harvested by removal of the medium and incubation of the cells with trypsine/EDTA (0.05%/0.02%; w/v) for 30 in at 37° C.
Each well (n=3 for every time point) was either treated with 25 μL DMEM-F12 (+5 wt % BSA) or 25 μL of an AMD3100 stock (1 mM in H2O) for blockage of the receptors.
The experiment was stopped by placing the well-plate on ice and removing the supernatant. The cells were washed with 250 μL cold HBSS and the both fractions for each well combined, comprising the amount of unbound radioligand.
The supernatant was removed, the cells washed with cold HBSS and the respective fractions combined to obtain the amount of surface-bound radioligand.
The cells were then incubated with 300 μL NaOH (1.00 M in H2O) for at least 30 at r.t. before the supernatant was removed. The well was washed with another 300 μL NaOH and the fractions combined that contain the amount of internalized radioligand.
The three different fractions were subjected to activity measurement in the γ-counter, measuring the activity of the radionuclide used for the labeling of the peptide under investigation first. […] Data was corrected for non-specific internalization and referred to the specific internalization of the standard ligand

[2] = Octanol/PBS partition coefficient (logD7.4); assay type: physicochemical; details: n-octanol/PBS pH 7.4, radiolabeled compound
Experimental: The tubes were vortexed at maximum speed for 3 min to ensure equilibrium before centrifugation at 15.000×g for 5 min on a Biofuge 15 from Heraeus Holding GmbH (Osterode, Germany). An aliquot of 100 μL of each fraction was measured in the γ-counter and the log D7.4 calculated as follows: […]

[3] = unlabeled or cold (natGa/natLu) compound vs 125I-Fc-131, Jurkat cells, read-out: IC50

Sequence of CXCR4 (P61073 whole entry): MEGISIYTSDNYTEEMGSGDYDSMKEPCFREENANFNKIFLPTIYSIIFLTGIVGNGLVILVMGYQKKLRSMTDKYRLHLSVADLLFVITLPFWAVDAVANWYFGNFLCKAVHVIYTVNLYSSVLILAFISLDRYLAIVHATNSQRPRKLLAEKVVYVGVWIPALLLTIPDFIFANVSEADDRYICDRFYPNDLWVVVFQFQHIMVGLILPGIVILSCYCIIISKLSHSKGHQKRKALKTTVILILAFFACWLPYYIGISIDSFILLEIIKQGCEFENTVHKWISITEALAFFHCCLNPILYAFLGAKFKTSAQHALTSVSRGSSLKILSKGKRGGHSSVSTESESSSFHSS

## C[C@@H](NC(=O)[C@@H](CCCNC(=N)N)NC(=O)[C@@H](CN)NC(=O)CN1CCN(CC(=O)O)CCN(CC(=O)O)CCN(CC(=O)O)CC1)C(=O)NCc1ccc(C(=O)NCCC[C@@H]2C(=O)N[C@@H](CCCNC(=N)N)C(=O)N[C@@H](Cc3ccc4ccccc4c3)C(=O)NCC(=O)N[C@H](Cc3ccc(O)cc3)C(=O)N2C)cc1 [CXCR4-DOTA-1 [Ga]] (cyclo([dY][dNMeOrn]([4Amb-dA-dR-dDap-DOTA])R[2Nal]G))
CXCR4; [3]
  IC50: 2.95 ± 0.59 nM

## C[C@@H](NC(=O)[C@@H](CCCNC(=N)N)NC(=O)[C@@H](CN)NC(=O)CN1CCN(CC(=O)O)CCN(CC(=O)O)CCN(CC(=O)O)CC1)C(=O)NCc1ccc(C(=O)NCCC[C@@H]2C(=O)N[C@@H](CCCNC(=N)N)C(=O)N[C@@H](Cc3ccc4ccccc4c3)C(=O)NCC(=O)N[C@H](Cc3ccc(O)cc3)C(=O)N2C)cc1 [CXCR4-DOTA-1] (cyclo([dY][dNMeOrn]([4Amb-dA-dR-dDap-DOTA])R[2Nal]G))
CXCR4; [3]
  IC50: 12.1 ± 2.42 nM

## C[C@@H](NC(=O)[C@@H](CCCNC(=N)N)NC(=O)[C@@H](CN)NC(=O)CN1CCN(CC(=O)O)CCN(CC(=O)O)CCN(CC(=O)O)CC1)C(=O)NCc1ccc(C(=O)NCCC[C@@H]2C(=O)N[C@@H](CCCNC(=N)N)C(=O)N[C@@H](Cc3ccc4ccccc4c3)C(=O)NCC(=O)N[C@H](Cc3ccc(O)c(I)c3)C(=O)N2C)cc1 [CXCR4-DOTA-2] (cyclo([dTyr(3-I)][dNMeOrn]([4Amb-dA-dR-dDap-DOTA])R[2Nal]G))
CXCR4
  IC50: 7.03 ± 0.59 nM

## C[C@@H](NC(=O)[C@@H](CCCNC(=N)N)NC(=O)[C@@H](CN)NC(=O)CN1CCN(CC(=O)O)CCN(CC(=O)O)CCN(CC(=O)O)CC1)C(=O)Nc1ccc(C(=O)NCCC[C@@H]2C(=O)N[C@@H](CCCNC(=N)N)C(=O)N[C@@H](Cc3ccc4ccccc4c3)C(=O)NCC(=O)N[C@H](Cc3ccc(O)cc3)C(=O)N2C)cc1 [CXCR4-DOTA-3 [Lu]] (cyclo([dY][dNMeOrn]([4Abz-dA-dR-dDap-DOTA])R[2Nal]G))
[1]; 15 min
  Internalized in relation to 125I-Fc-131 [%]: 180 ± 32.6%
  Cell-bound [%]: 6.46 ± 1.07%
  Internalized [%]: 15.2 ± 0.99%
[1]; 30 min
  Internalized in relation to 125I-Fc-131 [%]: 259 ± 23.0%
  Cell-bound [%]: 9.88 ± 0.54%
  Internalized [%]: 22.2 ± 0.78%
[1]; 60 min
  Internalized in relation to 125I-Fc-131 [%]: 289 ± 22.4%
  Cell-bound [%]: 13.4 ± 0.84%
  Internalized [%]: 33.4 ± 0.87%
[1]; 120 min
  Internalized in relation to 125I-Fc-131 [%]: 366 ± 69.5%
  Cell-bound [%]: 17.1 ± 2.69%
  Internalized [%]: 38.4 ± 1.78%
[1]
  Internalization [% Fc-131] 2 h: 366 % Fc-131
[2]
  logD7.4: −3.35 ± 0.19 (6)

## C[C@@H](NC(=O)[C@@H](CCCNC(=N)N)NC(=O)[C@@H](CN)NC(=O)CN1CCN(CC(=O)O)CCN(CC(=O)O)CCN(CC(=O)O)CC1)C(=O)Nc1ccc(C(=O)NCCC[C@@H]2C(=O)N[C@@H](CCCNC(=N)N)C(=O)N[C@@H](Cc3ccc4ccccc4c3)C(=O)NCC(=O)N[C@H](Cc3ccc(O)c(I)c3)C(=O)N2C)cc1 [CXCR4-DOTA-4 [Lu]] (cyclo([dTyr(3-I)][dNMeOrn]([4Abz-dA-dR-dDap-DOTA])R[2Nal]G))
[1]; 15 min
  Internalized in relation to 125I-Fc-131 [%]: 381 ± 16.2%
  Cell-bound [%]: 16.0 ± 0.58%
  Internalized [%]: 20.7 ± 0.59%
[1]; 30 min
  Internalized in relation to 125I-Fc-131 [%]: 588 ± 34.1%
  Cell-bound [%]: 24.6 ± 1.38%
  Internalized [%]: 30.6 ± 1.56%
[1]; 60 min
  Internalized in relation to 125I-Fc-131 [%]: 685 ± 50.1%
  Cell-bound [%]: 32.4 ± 0.60%
  Internalized [%]: 39.3 ± 0.52%
[1]; 120 min
  Internalized in relation to 125I-Fc-131 [%]: 675 ± 47.4%
  Cell-bound [%]: 37.2 ± 2.16%
  Internalized [%]: 53.23 ± 1.06%
[1]
  Internalization [% Fc-131] 2 h: 675 % Fc-131
[2]
  logD7.4: −2.89 ± 0.10 (6)
